Experimental data from patent US8710097B2, “Flavonoid dimers and methods of making and using such” (The Hong Kong Polytechnic University, priority 2006, dated 2014).

Assays:
[1] = system: LeMDR1 overexpressed L. enriettii (LeV160); test: Leishmania cell viability (MTS) assay; type: cell-based, Leishmania enriettii; details: LeV160
Source text: (§1) Cell lines and Cell Culture.

[2] = system: LeMDR1 knockout (LeMDR1 −/−) L. enriettii; test: Leishmania cell viability (MTS) assay; type: cell-based, Leishmania enriettii; details: LeMDR1 −/−
Source text: as §1

[3] = system: tested MDR cell lines (drug resistant breast cancer and leukemia cells); type: cell-based
Source text: Cell proliferation assay.

P388/ADR cells = test: Doxorubicin accumulation; type: cell-based, murine; details: 10 μM doxorubicin, 2 h, FIG. 11A
Ld39 amastigotes = test: Total antimony (SSG) accumulation assay using ICP-MS; type: cell-based, Leishmania donovani; details: 3 hr
Description: (§2) Amastigotes of L. donovani was prepared by spinning down 50 mL 4-day-old promastigotes (late log phase), and transferred to an axenic medium containing M199 Medium (Gibco), 0.5% Trypto casein soya, 3 mM L-cysteine, 15 mM D-glucose, 5 mM L-glutamine, 4 mM NaHCO3, 25 mM HEPES, 0.01 mM bathocuproine-disulfonic acid and 0.023 mM Hemin. Cells were then incubated at 37° C. for 24 hr. Amastigotes became ovoid in shape and were ready for drug accumulation assay.
(§3) The effect of flavonoid dimers on accumulation of antimony sodium stibogluconate (SSG) was investigated. Amastigotes are more susceptible to SSG and therefore accumulate more SSG as compared to promastigotes. Therefore, amastigotes were chosen for studying the Sb accumulation assay. […] After 3 hour incubation, the parasites were washed thrice with cold PBS, pH 7.4. The cell pellet was dissolved in 200 μL concentrated nitric acid for 24 hr at room temperature. The sample was diluted to 3 mL with distilled water, resulting in a final concentration of about 5 ppb of total Sb solution. It was then injected to ICP-MS (Perkin-Elmer) for quantitation. Antimony was measured at its m/z ratios of 121 and 123 with indium (In, m/z=115) as an internal standard. All chemicals used for the pretreatment of the samples were of at least analytical grade and the distilled water used directly as received without further purification.

LdAG83 amastigotes = test: as above; type: cell-based, Leishmania donovani; details: 9d 30 μM or 60 μM
Description: as §2, §3

Ld2001 amastigotes = test: as above; type: cell-based, Leishmania donovani; details: 3 hr
Description: as §2, §3

[4] = system: wild type L. enriettii (Le); test: Leishmania cell viability (MTS) assay; type: cell-based, Leishmania enriettii; details: Le wild type
Description: Cell lines and Cell Culture. Promastigotes of Leishmania enriettii (LePentR50, Le wild type, LeMDR1 −/− and LeMDR1-overexpressed LeV160 mutants) and Leishmania donovani (LdAG83, Ld2001 and Ld39) were employed in this study. The former is a natural infective strain of guinea pig and the latter is a clinical strain, which may cause visceral leishmaniasis in human. Both strains were cultured in Schneider's Drosophila Medium (Invitrogen), pH 6.9 supplemented with 10% (v/v) heat inactivated fetal calf serum (Hyclone) with 4 mM glutamine (Sigma) and 25 μg/mL gentamicin solution (Invitrogen), at 27° C. for 4 days (Cloning and functional analysis of an extrachromosomally amplified multidrug resistance-like gene in Leishmania enriettii. Mol. Biochem. Parasitol 1993, 60, 195-208).
Promastigotes of LeV160 were culture in the presence of 160 μg/mL vinblastine. No pentamidine and vinblastine (Sigma) was added to the Le wild type and LeMDR1 −/− mutant.
The viability of promastigotes was determined by the Cell Titer 96® Aqueous Assay (Promega) that employs a tetrazolium compound (MTS) and electron coupling reagent, phenazine methosulfate (PMS). Promastigotes were seeded into 96-well flat bottom microtiter plate at 1×10^5 cells per well in a final volume of 100 μL medium. To determine the cytotoxic effects of flavonoid dimers to the parasites, various concentrations of flavonoid dimers were added to the promastigotes. To determine the reversal effects of flavonoid dimers with different spacer lengths, various concentrations of antileishmanial drugs, one of pentamidine or SSG, vinblastine and puromycin was added to the wells with or without flavonoid dimers. The parasites were incubated at 27° C. for 72 hrs. Each concentration of antileishmanials with or without the flavonoid dimers was tested in triplicates in each experiment. A 2 mg/mL MTS and 0.92 mg/mL PMS were mixed at a ratio of 20:1 (MTS: PMS). […] After 4 hrs of incubation, the OD values were determined at 490 nm using automatic microtiter plate reader (Bio-Rad).

LePentR50 promastigotes = test: Pentamidine accumulation assay by HPLC; type: cell-based, Leishmania enriettii; details: 0.84 mM pentamidine, 3 hr
Description: The effect of flavonoid dimers on accumulation of pentamidine was investigated. […] After 3 hrs of incubation, the parasites were washed three times with cold PBS, pH 7.4. The cell pellet was then dissolved in 350 μL 75% acetonitrile and lysed by repeated freeze-thaw cycles. After lysing, the lysed cell suspension was centrifuged at 14,000 g at 4° C. for 10 min. The supernatant was collected and ready for determining pentamidine concentration using HPLC (Agilent 1100 Series). The pentamidine pools were analyzed on Zorbax ODS C18 column (4.6 mm×25 cm, 5-micron) kept at 40° C. The mobile phase consisted of water (10 mM tetramethylammonium chloride (TMAC), 10 mM sodium heptanesulphonate (SHS), 4.2 mM phosphoric acid (PA)) for pump A and 75% acetonitrile (ACN) in water (10 mM TMAC, 10 mM SHS, 4.2 mM PA) for pump B. The column was equilibrated at 40° C. overnight before analyses. Using a flow rate of 1.0 mL/min and signal at 265 nm, analyses were made at 58% pump A and 42% pump B. The retention time of pentamidine is 3.2 min. Compound 9d would not be eluted out under these conditions. To generate a standard curve, a 200 μM stock solution of pentamidine isethionate salt were prepared by dissolving 2.5 mg pentamidine isethionate salt in 21 mL 75% ACN (10 mM TMAC, 10 mM SHS, 4.2 mM PA). Concentration of 100, 50, 25 and 13 μM were then made by serial dilution, allowing the generation of standard curve.

Structure (SMILES): O=c1cc(-c2ccc(OCCOCCOCCOCCOc3ccc(-c4cc(=O)c5c(O)cc(O)cc5o4)cc3)cc2)oc2cc(O)cc(O)c12 [Compound 9d, 1,13-Bis[4′-((5,7-dihydroxy)-4H-chromen-4-on-2-yl)phenyl]-1,4,7,10,13-pentaoxamidecane]
- decrease of IC50 of pentamidine [1]: ~1.9 fold
- pentamidine sensitization [2]: 4.1 fold
- increase of cytotoxicity of anticancer drugs [3]: 6-50 RF
- increase of doxorubicin accumulation, folds of control (P388/ADR cells): about 2 folds
- SSG accumulation, % of that of LdAG83 (Ld39 amastigotes; 30 μM 9d): 74%
- SSG accumulation, % of that of LdAG83 (Ld39 amastigotes; 60 μM 9d): 90%
- accumulation of SSG versus cells without treatment (LdAG83 amastigotes): did not significantly differ
- SSG accumulation, % of that of LdAG83 (Ld2001 amastigotes; 30 μM 9d): 83%
- SSG accumulation, % of that of LdAG83 (Ld2001 amastigotes; 60 μM 9d): 69%
- decrease of IC50 of pentamidine [4]: about 3 fold
- intracellular pentamidine concentration (LePentR50 promastigotes; 15 μM 9d): 2.95±0.01 μM pentamidine/mg protein
- intracellular pentamidine concentration (LePentR50 promastigotes; 30 μM 9d): 4.69±0.51 μM pentamidine/mg protein
- intracellular pentamidine concentration (LePentR50 promastigotes; 60 μM 9d): 26.6±0.6 μM pentamidine/mg protein
